≈ marks a conversion by molar mass, not a printed value.
Experiments:
[1] = tested on: P. acnes ATCC 6919; assay: MIC determination (NCCLS broth microdilution), P. acnes; assay type: cell-based, Propionibacterium acnes; conditions: lowest concentration with >=80% inhibition, 24 h at 34° C.
Protocol: (§1) The compounds of this invention are evaluated for their antibacterial activity as per the guidelines and procedures prescribed by the National Committee for Clinical Laboratory Standards (NCCLS) (cf., NCCLS Document M7-A3, 1993-Antimicrobial Susceptibility Testing). 5.1.1 Protocol for Determining Minimum Inhibitory Concentration (MIC) A useful protocol for MIC determination is as follows: • 1. Approximately 2.5 mg of the compounds to be tested was weighed into cryovials. • 2. 5 mg/ml stock solutions were made by adding DMSO to the samples accordingly. • 3. 256 μg/ml working solutions were made by using the 5 mg/ml stock solutions and adding sterile distilled water accordingly. • 4. A Beckman 2000 Automated Workstation was programmed to load 96-well plates with broth and compounds as follows: • 100 μl of the appropriate broth was added to columns 1-11. • 200 μl of the appropriate broth was added to column 12. • 100 μl of compounds at the 256 μg/ml working solution were added to column 1 (one compound per row). • Two-fold serial dilutions were done from columns 1-10. • Column 11 served as the growth control. • 5. The ten-organism panel was plated from stock vials stored at −80° C. and incubated for 24 hours at 34° C. The organisms were then sub-cultured and incubated for 24 hours at 34° C. • The inoculums were first prepared in sterile distilled water with a target of 0.09-0.11 absorbance at 620 nm wavelength. • A 1/100 dilution was made into the appropriate broth. • 100 μl of broth with organism was added to columns 1-11. • Column 12 served as the blank control. • 6. The completed 96 well plates were incubated for 24 hours at 34° C. The 96-well plates were then read using a Beckman Automated Plate Reader at 650 nm wavelength. The MIC was determined through calculations involving the growth control (column 11) and blank control (column 12). 5.1.2 MIC Calculation The absorbance readings from the Biomek Automated Plate Reader are used to determine the percent inhibition for each test well. The formula used is as follows: [formula] • ABSTest: Absorbance of the test well. • ABSblank: Absorbance of the blank well in the same row as the test well (column 12). • ABSgrowth: Mean absorbance of the growth control wells (column 11). […] These procedures were used to obtain the representative microbiological data for the compounds 10 to 19 shown in Table 1 as MIC (Minimum Inhibitory Concentration) with the values expressed as micrograms per milliliter (mcg/ml).

[2] = tested on: S. epidermidis ATCC 12228; assay: MIC determination (NCCLS broth microdilution), S. epidermidis; assay type: cell-based; conditions: lowest concentration with >=80% inhibition, 24 h at 34° C.
Protocol: as §1

[3] = tested on: IL-8; assay: Inhibition of IL-8 pro-inflammatory cytokine release; assay type: cell-based
Excerpt: The selective inhibition of the release of pro-inflammatory cytokines is shown in Table 2 with representative compounds 10, 11, and 30-35.

[4] = tested on: TNF-α; assay: Inhibition of TNF-α secretion from human PBMC stimulated with LPS; assay type: cell-based; conditions: 1 μg/ml LPS, 24 h; for IC50: read-out: IC50 TNF-α release
Protocol: (§2) 5.2 Inhibition of IL-β, IL-6, or TNF-α Secretion from Human Peripheral Blood […] (PBMC) Stimulated with LPS PBMC (5×10^5 cells) suspended in RPMI 1640 culture medium supplemented with 1% penicillin and 1% streptomycin are pre-incubated for 30 min. at 37° C. with the test compound, reference compound, or culture medium (control). Thereafter, 1 μg/ml LPS is added to induce the cytokine secretion and the mixture is incubated for 24 h at 37° C. For basal control measurements, LPS is omitted from the incubation medium. Following incubation, the samples are centrifuged at 250×g for 5 min. at 4° C. and the supernatants are collected. The amount of secreted IL-1β, 1L-6, or TNF-α present in the supernatant is quantified using an EIA detection kit (R&D systems). The photometric measurements are made with a microplate reader (Ultra, Tecan). The results are expressed as a percent inhibition of the control secretion induced by LPS. The standard inhibitory reference compounds for IL-1β, IL-6 or TNF-α are cycloheximide and dexamethasone, respectively, which are tested in each experiment at several concentrations to obtain an inhibition curve from which their IC50 values are calculated (Schindler, R., et al., (1990). “Correlations and interactions in the production of interleukin-6 (IL-6), IL-1, and tumor necrosis factor (TNF) in human blood mononuclear cells: IL-6 suppresses IL-1 and TNF”, Blood, 75:40. These procedures were used to determine the inhibition (and selectivity) of cytokine release by representative compounds […] shown in Table 2. Thus, the invention provides antibiotics that are generically called borinic acid complexes, most preferably derived from disubstituted borinic acids.

[5] = tested on: IL-6; assay: Inhibition of IL-6 secretion from human PBMC stimulated with LPS; assay type: cell-based; conditions: 1 μg/ml LPS, 24 h; for IC50: read-out: IC50 IL-6 release
Protocol: as §2

[6] = tested on: S. aureus ATCC 29213; assay: MIC determination (NCCLS broth microdilution), S. aureus; assay type: cell-based; conditions: lowest concentration with >=80% inhibition, 24 h at 34° C.
Protocol: as §1

[7] = tested on: IL-1β; assay: Inhibition of IL-1β secretion from human PBMC stimulated with LPS; assay type: cell-based; conditions: 1 μg/ml LPS, 24 h; for IC50: read-out: IC50 IL-1β release
Protocol: as §2

| SMILES | MIC P. acnes ATCC 6919 [1] [µg/mL] | MIC S. epidermidis ATCC 12228 [2] [µg/mL] | Inhibition (%) at 25 μM TNF-α release [4] | MIC S. aureus ATCC 29213 [6] [µg/mL] | Inhibition (%) at 25 μM IL-1β release [7] | also measured |
| --- | --- | --- | --- | --- | --- | --- |
| Cc1ccc(B(OC(=O)c2ncccc2O)c2ccc(C)c(Cl)c2)cc1Cl [Compound 10, Bis(3-chloro-4-methylphenyl)borinic acid 3-hydroxypicolinate ester] | 0.3 (≈ 0.75 µM) | 1 (≈ 2.5 µM) | (100%) | 2 (≈ 5 µM) | (99%) | Inhibition (%) at 25 μM IL-8 release [3]: (122%); IC50 [4]: 8.6 µM; IC50 [5]: 3.6 µM; Inhibition (%) at 25 μM IL-6 release [5]: (80%); IC50 [7]: 10.8 µM |
| Cc1cc(Cl)ccc1B(OC(=O)c1ncccc1O)c1ccc(Cl)cc1C [Compound 11, Bis(2-methyl-4-chlorophenyl)borinic acid 3-Hydroxypicolinate ester] | 0.3 (≈ 0.75 µM) | 0.25 (≈ 0.625 µM) | (101%) | 1 (≈ 2.5 µM) | (103%) | Inhibition (%) at 25 μM IL-8 release [3]: (122%); IC50 [4]: 14.9 µM; IC50 [5]: 2.8 µM; Inhibition (%) at 25 μM IL-6 release [5]: (102%); IC50 [7]: 15 µM |
| Cc1ccc(B(CCc2ccccc2)OC(=O)c2ncccc2O)cc1Cl [Compound 12, (3-chloro-4-methylphenyl)(phenethyl)borinic acid 3-Hydroxypicolinate ester] | 3 (≈ 7.9 µM) | 1 (≈ 2.63 µM) | – | 0.5 (≈ 1.32 µM) | – | – |
| O=C(OB(c1ccc(Cl)cc1F)c1c(Cl)ccc(Br)c1F)c1ncccc1O [Compound 13, (3-Bromo-6-chloro-2-fluorophenyl)(2-fluoro-4-chlorophenyl)borinic acid 3-Hydroxypicolinate ester] | 3 (≈ 6.16 µM) | 1 (≈ 2.05 µM) | – | 2 (≈ 4.11 µM) | – | – |
| Cc1ccc(B(OC(=O)c2ncccc2C(=O)O)c2ccc(C)cc2Cl)c(Cl)c1 [Compound 14, Bis(2-Chloro-4-methylphenyl)borinic acid 3-carboxypicolinate ester] | 3 (≈ 7.01 µM) | 4 (≈ 9.34 µM) | – | 0.125 (≈ 0.292 µM) | – | – |
| COc1ccc(Cl)cc1B(OC(=O)c1ncccc1O)c1cccc(Cl)c1 [Compound 15, (2-Methoxy-5-chlorophenyl)(3-chlorophenyl)borinic acid 3-Hydroxypicolinate ester] | 3 (≈ 7.46 µM) | 4 (≈ 9.95 µM) | – | 4 (≈ 9.95 µM) | – | – |
| CC(=O)Nc1ccc(O)c(C(=O)OB(c2cccc(Cl)c2)c2cccc(Cl)c2)n1 [Compound 16, Bis(3-chlorophenyl)borinic acid 6-Acetylamino-3-hydroxypicolinate ester] | 10 (≈ 23.3 µM) | 8 (≈ 18.6 µM) | – | 0.5 (≈ 1.17 µM) | – | – |
| CCOC(=O)c1cccnc1C(=O)OB(c1ccc(C)c(Cl)c1)c1ccc(C)c(Cl)c1 [Compound 30, Bis(3-chloro-4-methylphenyl)borinic Acid 3-(Ethyloxycarbonyl)picolinate Ester] | – | – | 101% | – | 76% | – |
| Cc1ccc(B(OC(=O)c2ccc(C(=O)O)cn2)c2ccc(C)c(Cl)c2)cc1Cl [Compound 31, Bis(3-chloro-4-methylphenyl)borinic acid 5-Carboxypicolinate ester] | – | – | 101% | – | 80% | – |
| Cc1ccc(B(OC(=O)c2ncccc2OCCN2CCOCC2)c2ccc(C)c(Cl)c2)cc1Cl [Compound 32, Bis(3-chloro-4-methylphenyl)borinic acid 3-[(2-Morpholinoethyl)oxy]picolinate ester] | – | – | 101% | – | 34% | – |
| Cc1ccc(B(OC(=O)c2ncccc2O)c2ccc(O)cc2)cc1Cl [Compound 33, (3-chloro-4-methylphenyl)(4-hydroxyphenyl)borinic acid 3-hydroxypicolinate ester] | – | – | 48% | – | 60% | – |
| O=C(OB(c1ccc(Cl)cc1F)c1c(Cl)ccc(Br)c1F)c1ncccc1O [Compound 34, (3-Bromo-6-chloro-2-fluorophenyl)(4-chloro-2-fluorophenyl)borinic acid 3-hydroxypicolinate ester] | – | – | 101% | – | 100% | Inhibition (%) at 25 μM IL-6 release [5]: 108% |
| CC[C@H]1OC(=O)[C@H](C)[C@@H](O[C@H]2C[C@@](C)(OC)[C@@H](O)[C@H](C)O2)[C@H](C)[C@@H](O[C@@H]2O[C@H](C)C[C@H](N(C)C)[C@H]2O)[C@](C)(O)C[C@@H](C)C(=O)[C@H](C)[C@@H](O)[C@]1(C)O [erythromycin, reference compound] | – | – | – | – | – | MIC ([1]; Cutibacterium acnes, ATCC6919): 1 to 2 µg/mL (≈ 1.36 to 2.73 µM); MIC ([2]; Staphylococcus epidermidis, ATCC12228): 0.5 µg/mL (≈ 0.681 µM); MIC ([6]; Staphylococcus aureus, ATCC29213): 0.5 µg/mL (≈ 0.681 µM) |

From patent US7652000B2, “Boron-containing compounds and methods of use” (Anacor Pharmaceuticals, Inc., priority 2004, dated 2010)
